From US8569011B2, “Fluorescent derivatives of polyamines, method for preparing same and applications thereof as diagnosis tools in the treatment of cancerous tumors” (Pierre Fabre Medicament, priority 2007, dated 2013)

Assays:
CEM [1] = assay: Cytotoxicity, residual ATP (ATPlite kit), 72 hours, CEM; type: cell-based; conditions: Homo sapiens, CCRF-CEM, CEM leukemic line, 72 hours incubation
Method: (§1) An anticancer compound is used, a derivative of epipodophyllotoxin, whose intracellular penetration is dependent on the polyamine transporter, such as the compound described in example 27 of patent application WO 2005/100363 and, as reference compound, etoposide which is a non-vectored epipodophyllotoxin. These two compounds have the same mechanism of action on cancer cells: they are both inhibitors of topoisomerase 2.
(§2) A panel of leukemic lines was assayed to ascertain probe incorporation, here the one described in example 1, regarding the sensitivity to a vectored agent such as the compound in example 27 of patent application WO 2005/100363 and by comparison with non-vectored etoposide. After an incubation time of 72 hours with the compound of example 27 in patent application WO 2005/100363 or with etoposide, cytotoxicity was evaluated using the ATPlite kit. Cells from the same line were also incubated in the presence of the probe described in example 1, and were analyzed by flow cytometry. Fluorescence intensity measured at 525 nm was followed from 0 to 1 hour 30 minutes and the slope of intensity variation was calculated.

BL-41 [2] = assay: Cytotoxicity, residual ATP (ATPlite kit), 72 hours, BL-41; type: cell-based; conditions: Homo sapiens, BL-41 leukemic line, 72 hours incubation
Method: as §1, §2

BLUE-1 [3] = assay: Cytotoxicity, residual ATP (ATPlite kit), 72 hours, BLUE-1; type: cell-based; conditions: BLUE-1 leukemic line, 72 hours incubation
Method: as §1, §2

U-937 [4] = assay: Cytotoxicity, residual ATP (ATPlite kit), 72 hours, U-937; type: cell-based; conditions: Homo sapiens, U-937 leukemic line, 72 hours incubation
Method: as §1, §2

KG-1 [5] = assay: Cytotoxicity, residual ATP (ATPlite kit), 72 hours, KG-1; type: cell-based; conditions: Homo sapiens, KG-1 leukemic line, 72 hours incubation
Method: as §1, §2

CEM [6] = assay: Fluorescent probe incorporation (polyamine transport activity) by flow cytometry, CEM; type: cell-based; conditions: (cell intensity with probe presence) - (cell intensity without probe presence), emission 525 nm
Method: (§3) Cells taken from biopsies are mechanically separated with or without the presence of trypsin depending on the constitution of the tissue under consideration. The haematopoietic cells are separated and isolated following conventional preparation methods for blood cells. Once isolated after a fairly short time to ensure the viability of the cells being examined, the cells are placed in the presence of the probe such as synthesized in examples 1 to 3 for example, and left to incubate in the recommended culture medium for the tissue under consideration in the presence of aminoguanidine. Aminoguanidine is used to prevent in vitro denaturating of the polyamines. […] An incubation time of one to four hours is sufficient and allows detection of fluorescence by immunochemistry or flow cytometry, by choosing excitation and emission wavelengths compatible with the substituent of the fluorescent probe. This analysis is conducted by flow cytometry or histochemistry following standard methodology in the study described below, by exciting the probe obtained in example 1, N-(3-aminopropyl)-N′-{3-[methyl-(7-nitrobenzo[1,2,5]oxadiazol-4-yl)-amino]-propyl}-butane-1,4-diamine with a 488 nm source and measuring fluorescence emission at 525 nm. […]
(§4) For all the assayed lines, the capacity to incorporate the fluorescent probe, characterized by the fluorescence measured by flow cytometry, was also measured.

BL-41 [7] = assay: Fluorescent probe incorporation (polyamine transport activity) by flow cytometry, BL-41; type: cell-based; conditions: (cell intensity with probe presence) - (cell intensity without probe presence), emission 525 nm
Method: as §3, §4

BLUE-1 [8] = assay: Fluorescent probe incorporation (polyamine transport activity) by flow cytometry, BLUE-1; type: cell-based; conditions: (cell intensity with probe presence) - (cell intensity without probe presence), emission 525 nm
Method: as §3, §4

U-937 [9] = assay: Fluorescent probe incorporation (polyamine transport activity) by flow cytometry, U-937; type: cell-based; conditions: (cell intensity with probe presence) - (cell intensity without probe presence), emission 525 nm
Method: as §3, §4

KG-1 [10] = assay: Fluorescent probe incorporation (polyamine transport activity) by flow cytometry, KG-1; type: cell-based; conditions: (cell intensity with probe presence) - (cell intensity without probe presence), emission 525 nm
Method: as §3, §4

A549 cells = assay: Selectivity of the probes vis-a-vis tumor cells: probe incorporation in A549 cells compared with MRC-5 cells; type: cell-based, human
Method: as §3

Compound | IC50 (CEM [1]) | IC50 (BL-41 [2]) | IC50 (BLUE-1 [3]) | IC50 (U-937 [4]) | IC50 (KG-1 [5]) | Polyamine transport activity (CEM [6]) | Polyamine transport activity (BL-41 [7]) | Polyamine transport activity (BLUE-1 [8]) | Polyamine transport activity (U-937 [9]) | Polyamine transport activity (KG-1 [10]) | Incorporation differential tumoral cells versus healthy cells (A549 cells; flow cytometry, A549 vs MRC-5) | Incorporation of the probe in tumoral cells versus cells from healthy tissue (A549 cells; fluorescence microscope, slide cultured cells, A549 (FIG. 1A) vs MRC-5 healthy lung (FIG. 1B), excitation 488 nm, emission 525 nm)
COc1cc([C@@H]2c3cc4c(cc3[C@@H](O[C@@H]3O[C@@H]5CO[C@@H](C)O[C@H]5[C@H](O)[C@H]3O)[C@H]3COC(=O)[C@H]23)OCO4)cc(OC)c1O [Etoposide, etoposide] | 60 nM | 400 nM | 1000 nM | 400 nM | 5000 nM | – | – | – | – | – | – | –
CN(CCCNCCCCNCCCN)c1ccc([N+](=O)[O-])c2nonc12 [Example 1, N-(3-aminopropyl)-N′-{3-(methyl-(7-nitrobenzo[1,2,5]oxadiazol-4-yl)-amino)-propyl}-butane-1,4-diamine] | – | – | – | – | – | 421 Arbitrary Unit of fluorescence | 164 Arbitrary Unit of fluorescence | 58 Arbitrary Unit of fluorescence | 33 Arbitrary Unit of fluorescence | 17 Arbitrary Unit of fluorescence | confirmed by flow cytometry | much greater incorporation
